Read-outs that look alike come from different tables or passages of the source.
Molecular target: T1, yeast alcohol dehydrogenase (Saccharomyces cerevisiae, UniProt P00330)
T1 construct: gene ADH1
T1 sequence (P00330 2-348): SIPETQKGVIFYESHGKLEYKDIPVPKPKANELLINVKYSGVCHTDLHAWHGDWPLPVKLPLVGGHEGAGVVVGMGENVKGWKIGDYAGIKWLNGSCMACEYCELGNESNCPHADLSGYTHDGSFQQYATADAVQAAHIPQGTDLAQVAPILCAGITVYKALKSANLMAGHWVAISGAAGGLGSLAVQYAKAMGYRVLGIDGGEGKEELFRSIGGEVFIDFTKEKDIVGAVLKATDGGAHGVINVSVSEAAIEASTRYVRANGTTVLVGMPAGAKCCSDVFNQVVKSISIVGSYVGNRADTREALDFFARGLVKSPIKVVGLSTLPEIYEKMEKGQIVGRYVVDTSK
Assay: NADH absorbance ([…] nm) enzyme assay of acetaldehyde reduction, 8-point dose response
Assay type: biochemical

IC50 (read-out: IC50 yADH ^c) [µM] | SMILES | IC50 [µM]
25.6 | CC(=O)c1ccc(O)c2c1C1C=CCC1C(c1ccc(Cl)cc1)N2 (stereo not shown) [compound 7172827, 7172827] | 
 | COc1cc(C)c(/C=C/[N+](=O)[O-])cc1C(C)C [compound 7279172, 7279172] | 12.7
 | COc1ccc(/C=C/[N+](=O)[O-])cc1Br [compound 7241889, 7241889] | 1.3
 | C#CCOc1c(Cl)cc(/C=C/[N+](=O)[O-])cc1OC [compound 7312219, 7312219] | 3.8
